Measurements from US20050148534A1, “Small molecule compositions and methods for increasing drug efficiency using compositions thereof” (priority 2003, published 2005).
Where two headings read alike, the source gives them in different places.

Legend:
[1] = target: T1, deoxyguanosine kinase (dGK) (Homo sapiens, UniProt Q16854); conditions: substrate activity; literature (Johansson et al.); cited from earlier work
T1 sequence (Q16854 40-277): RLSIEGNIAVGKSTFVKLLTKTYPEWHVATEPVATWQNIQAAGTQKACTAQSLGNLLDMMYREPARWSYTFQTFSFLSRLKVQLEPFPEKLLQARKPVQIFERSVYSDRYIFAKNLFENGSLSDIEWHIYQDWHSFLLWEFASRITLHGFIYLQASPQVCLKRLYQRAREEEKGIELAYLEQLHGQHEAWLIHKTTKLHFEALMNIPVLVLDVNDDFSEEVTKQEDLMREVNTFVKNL

[2] = target: deoxycytidine kinase (dCK) (Homo sapiens, UniProt P27707); conditions: substrate activity; literature (Johansson et al.; Eriksson et al.; Wang et al.), source per Table 3; cited from earlier work
Chain of deoxycytidine kinase (dCK) (P27707 whole entry, species assumed): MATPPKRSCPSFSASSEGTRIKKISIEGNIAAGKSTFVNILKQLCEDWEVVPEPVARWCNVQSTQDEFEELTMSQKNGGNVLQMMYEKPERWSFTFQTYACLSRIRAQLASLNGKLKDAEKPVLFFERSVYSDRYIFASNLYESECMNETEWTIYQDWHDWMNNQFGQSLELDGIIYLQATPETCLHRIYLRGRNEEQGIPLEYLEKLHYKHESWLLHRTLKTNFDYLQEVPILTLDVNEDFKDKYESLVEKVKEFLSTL

MCF-7 breast carcinoma [3] = experiment: Cytotoxicity assay (soft agar), MCF-7; conditions: Homo sapiens
[4] = system: HT-29 colorectal carcinoma; experiment: Cytotoxicity assay (monolayer), HT-29; assay type: cell-based; conditions: Homo sapiens
Method: (§1) Statistical Assoc., 81, 991-999, 1986.
(§2) Monolayer assays with tumor cell lines (MCF-7 breast carcinoma and HT-29 colorectal carcinoma from ATCC) were carried out in triplicate in 96-well plates with RPMI1640 medium containing 5% fetal bovine serum, 100 U/ml penicillin and 100 μg/ml streptomycin. Normal human foreskin fibroblasts (HFF #CC-2509) were from Cambrex and were cultured in FGM-2 medium. Exponentially growing cells (5,000 MCF-7 or HT-29; 1,500 HFF) were plated in 100 μl medium and incubated overnight (5% CO2, 37° C.). Compounds (20 pM to 20 μM final concentration, 6-8 doses) and vehicle (DMSO) controls were added and the incubation was continued for an additional 72 hours. Final cell density was determined by incubating cultures with 25 μl AlamarBlue reagent (BioSource, Camarillo, Calif.) for 4 hours, followed by determination of fluorescence at excitation of 544 nm and emission of 590 nm with a SpectroMax Gemini EM fluorescence plate reader (Molecular Devices, Sunnyvale, Calif.). EC50 values were generated from dose-response curves by a 4-parameter method using Softmax PRO software. Mean EC50s (±SD) represent the average of all tests carried out for all lots of a given compound. […] Statistical Assoc., 81, 991-999 (1986).

[5] = system: HT-29 colorectal carcinoma; experiment: Cytotoxicity assay (soft agar), HT-29; conditions: Homo sapiens
[6] = system: Normal human foreskin fibroblasts (HFF); experiment: Cytotoxicity assay (monolayer), HFF; assay type: cell-based; conditions: Fibroblast
Method: as §1, §2

MCF-7 breast carcinoma [7] = experiment: Cytotoxicity assay (monolayer), MCF-7; assay type: cell-based; conditions: Homo sapiens, MCF7
Method: as §1, §2

HT29 = experiment: Cytotoxicity assay, HT29 SSA (SSA not explained); assay type: cell-based; conditions: Homo sapiens, HT-29; read-out: HT29 (EC50 Ave) SSA
HUVEC = experiment: Cytotoxicity assay (monolayer), HUVEC; assay type: cell-based; conditions: Homo sapiens, read-out: HUVEC (EC50 Ave) ML
tubulin = experiment: Fluorescence-based microtubule polymerization assay (MPA); assay type: biochemical; conditions: mean percentage of paclitaxel or vinblastine activity; 0.75-10 micromolar
Text: Drug-linker constructs may further be screened using functional assays predictive of biological activity. […] Tubulin assembly or inhibition thereof may be monitored by fluorescence using the CytoDYNAMIX Screen™ 10 kit available from Cytoskeleton (1830 S. Acoma St., Denver, Colo.). […] Emission is monitored at 405 nm with excitation at 360 nm. […] Tubulin assembly or inhibition may also be monitored by light scattering which is approximated by the apparent absorption at 350 nm. For paclitaxel drug conjugates BSA is employed to prevent aggregation and glycerol, which is a tubulin polymerization enhancer, is omitted from the kit to increase the signal to noise ratio.
The assay kit (#BK011) was purchased from Cytoskeleton (Denver, Colo.). The assays were carried out according to the manufacturer's instructions, except that 1 mg/ml BSA (Sigma #A3059) was included in all assays. […] Parent drugs and conjugates were tested at 0.75, 1.5, 3 and 10 micromolar final concentration and results represent a comparison of conjugate and parent drug curves obtained from the linear range of the dose responses.

MCF7 = experiment: Cytotoxicity assay, MCF7 SSA (SSA not explained); assay type: cell-based; conditions: Homo sapiens
[8] = target: T2, Human thymidine kinase 1 (TK1) (Homo sapiens, UniProt P04183); experiment: Thymidine kinase coupled (kinetic) ATP depletion assay; assay type: biochemical; conditions: initial velocity relative to thymidine; 100 μM conjugate
T2 construct: His tag (from pET28b(+)) (N); made in house; host or cells: E. coli BL21-codon plus
T2 sequence (P04183 1-234): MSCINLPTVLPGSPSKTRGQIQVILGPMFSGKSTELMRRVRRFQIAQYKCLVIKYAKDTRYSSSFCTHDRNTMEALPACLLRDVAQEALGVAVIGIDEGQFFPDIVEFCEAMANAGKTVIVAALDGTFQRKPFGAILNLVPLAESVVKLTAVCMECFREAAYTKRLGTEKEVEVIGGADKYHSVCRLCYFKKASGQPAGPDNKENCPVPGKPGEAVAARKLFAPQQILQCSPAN
Method: Thymidine kinase, viral thymidine kinase, TK-1 deoxycytidine kinase, and deoxyguanosine kinase activities are determined by subjecting a first end of a linker used in synthesizing linker-substrate constructs to a first test. The first test may involve observing ADP formation, an obligatory co-product of phospho group transfer from ATP which is catalyzed by the kinase to the C5′ hydroxyl group or its equivalent in the nucleoside or nucleoside analog. Formation of ADP is followed by a coupled enzyme assay well known in the art. ADP, formed from kinase phosphorylation, is used by pyruvate kinase to generate pyruvate from phosphoenolpyruvate which in turn is converted to lactate by lactate dehydrogenase. The lactate results in the consumption of NADH which is followed spectrophotometrically. The rate of nucleoside phosphorylation is then directly related to the rate of decrease in the observed NADH signal.
TK1 was amplified using PCR with forward primer 5′-[…]-3′ and reverse primer 5′-[…]-3′. The PCR product was digested with Nde I and Hind III. An N-terminal His-tagged TK1 construct, TK1/pET28b(+), was generated by subcloning TK1 into the Nde I and Hind III sites of prokaryotic expression vector pET28b (+) (Novagen, San Diego, Calif.). TK1 was expressed from TK1/pET28b(+) using E. coli strain BL21-codon plus (Stratagene, San Diego, Calif.) and purified by Ni column chromatography.
A coupled (kinetic) ATP depletion assay was developed to measure thymidine kinase activity. The reaction contained 100 mM Tris HCl, pH 7.5, 20 mM MgCl2, 100 mM KCl, 0.4 mM PEP, 0.2 mM NADH, Pyruvate Kinase (0.7 units)/Lactate Dehydrogenase (1.0 unit) (Sigma #PO294), 2.5-10 μg Thymidine Kinase, 100 μM thymidine or thymidine-drug conjugate in a volume of 75 μl. ATP (5 mM in 25 μl H2O) was added to initiate the reaction and the velocity of ATP depletion was monitored at 340 nm continuously for 15 minutes.

[9] = Serum stability in RPMI1640 medium containing 10% fetal bovine serum; assay type: in vitro ADME
Method: The stability of conjugates was measured in RPMI1640 cell culture medium containing 10% fetal bovine serum. The serum-containing medium was pre-warmed at 37° C. for 3 min prior to addition of test articles. Test articles, prepared in DMSO as 5 mM stocks, were added to the cell culture media to a final concentration of […]. Aliquots ([…]) were withdrawn in triplicate at 0, 4, 8, 24 and 72 hours and combined with the same volume of ice-cold acetonitrile to terminate the reaction. The mixture was centrifuged at 2,000×g for 10 minutes. One part of the supernatant was mixed with four parts of deionized water to bring down the percentage of organic solvent. The diluted samples were then assayed by LC/MS for the test article. The natural log of the percent remaining was plotted versus time. A linear fit was used to determine the rate constant. The fit was truncated after the percent of remaining test article was less than 10%. The elimination half-lives associated with the disappearance of test articles were determined to compare their relative stability. The assays were carried out by Absorption Systems (Exton, Pa.).

[10] = MCF7, read-out: MCF7 (EC50 Ave) SA
[11] = monolayer, 72 hours, AlamarBlue, read-out: HT29 (EC50 Ave) ML
[12] = HT-29, read-out: HT29 (EC50 Ave) SA
[13] = monolayer, 72 hours, AlamarBlue, read-out: HFF (EC50 Ave) ML
[14] = monolayer, 72 hours, AlamarBlue, read-out: MCF7 (EC50 Ave) ML

SMILES: Nc1nc(Cl)nc2c1ncn2[C@H]1C[C@H](O)[C@@H](CO)O1 [X = O, R3 = OH, R5 = H, B = 2-Cl-Adenine]
- dGK [1]: 180

SMILES: Nc1ncnc2c1ncn2[C@@H]1O[C@H](CO)[C@@H](O)[C@@H]1O [AraA]
- dCK [2]: 50
- dGK [1]: 15

SMILES: Nc1nc2c(ncn2[C@@H]2O[C@H](CO)[C@@H](O)[C@@H]2O)c(=O)[nH]1 [AraG]
- dCK [2]: 6
- dGK [1]: 180

SMILES: O=c1[nH]cnc2c1ncn2[C@H]1C[C@H](O)[C@@H](CO)O1 [dino]
- dCK [2]: 120
- dGK [1]: 100

SMILES: O=c1[nH]cnc2c1ncn2C1OC(CO)C(O)C1O (stereo not drawn)
- dGK [1]: 290

SMILES: Nc1nc2c(ncn2C2CC(O)C(CO)C2)c(=O)[nH]1 (stereo not drawn) [X = CH2, R3 = OH, R5 = H, B = Guanine]
- dGK [1]: 70

SMILES: CC[C@]1(O)CC2CN(CCc3c([nH]c4ccccc34)[C@@](C(=O)OC)(c3cc4c(cc3OC)N(C)[C@H]3C(O)(C(=O)NCCOCCOCCOCCN)[C@H](O)[C@]5(CC)C=CCN6CCC43[C@@H]65)C2)C1 (stereo partly drawn) [VBL-3Am-PEG(11)-NH2, deacetylvinblastine-3-(amido-PEG-amine)]
- EC50 (MCF-7 breast carcinoma [3]; [10]): < 100 nM
- EC50 [4, 11]: 100 to 1000 nM
- EC50 [5, 12]: < 100 nM
- EC50 [6, 13]: < 100 nM
- EC50 (MCF-7 breast carcinoma [7]; [14]): 100 to 1000 nM
- EC50 (HT29): < 100 nM
- EC50 (HUVEC): < 100 nM
- Ave. MPA Act (tubulin): B (B=60-100)
- EC50 (MCF7): < 100 nM

SMILES: Nc1ncnc2c1ncn2C1CC(O)C(CO)O1 (stereo not drawn) [dado]
- dGK [1]: 100

SMILES: CC[C@]1(O)C[C@@H]2CN(CCc3c([nH]c4ccccc34)[C@@](C(=O)OC)(c3cc4c(cc3OC)N(C)[C@H]3[C@@](O)(C(=O)NCCCn5c(=O)c(C)cn([C@H]6C[C@H](O)[C@@H](CO)O6)c5=O)[C@H](O)[C@]5(CC)C=CCN6CC[C@]43[C@@H]65)C2)C1 [VBL-3Am-ALK(3)-N3-THY]
- Ave. TK1 Kinase Act. [8]: A (A<20)
- Ave. MPA Act (tubulin): C (C>100)

SMILES: Nc1nc2c(ncn2[C@H]2C[C@H](O)[C@@H](CO)O2)c(=O)[nH]1 [dGuo]
- dCK [2]: 300
- dGK [1]: 50

SMILES: CC(=O)O[C@@]12CO[C@@H]1C[C@H](O)[C@@]1(C)C(=O)[C@H](OC(=O)NCCOCCn3c(=O)c(C)cn([C@@H]4C[C@H](O)[C@@H](CO)O4)c3=O)C3=C(C)[C@@H](OC(=O)[C@H](O)[C@@H](NC(=O)c4ccccc4)c4ccccc4)C[C@@](O)([C@@H](OC(=O)c4ccccc4)[C@H]21)C3(C)C [PXL-10Ca-PEG(5)-N3-αTHY]
- Ave. TK1 Kinase Act. [8]: A (A<20)
- Ave. MPA Act (tubulin): B (B=60-100)

SMILES: CC(=O)O[C@H]1C(=O)C2(C)[C@@H](OC(=O)NCCCCCCn3c(=O)c(C)cn([C@H]4CC(O)[C@@H](CO)O4)c3=O)CC3OC[C@]3(OC(C)=O)[C@H]2[C@H](OC(=O)c2ccccc2)[C@]2(O)C[C@H](OC(=O)[C@H](O)[C@@H](NC(=O)c3ccccc3)c3ccccc3)C(C)=C1C2(C)C (stereo partly drawn) [PXL-7Ca-ALK(6)-N3-THY]
- EC50 (MCF-7 breast carcinoma [3]; [10]): < 100 nM
- EC50 (MCF-7 breast carcinoma [3]; MCF7, read-out: MCF-7 Soft Agar EC50): 40 ± 41 nM
- EC50 ([4]; mean ± SD, read-out: HT-29 Monolayer EC50): 258 ± 129 nM
- EC50 [4, 11]: 100 to 1000 nM
- EC50 [5, 12]: 100 to 1000 nM
- EC50 ([5]; HT-29, read-out: HT-29 Soft Agar EC50): 120 ± 4 nM
- Ave. TK1 Kinase Act. [8]: A (A<20)
- EC50 ([6]; mean ± SD, read-out: HFF Monolayer EC50): 457 ± 310 nM
- EC50 [6, 13]: 100 to 1000 nM
- EC50 (MCF-7 breast carcinoma [7]; mean ± SD, read-out: MCF-7 Monolayer EC50): 120 ± 73 nM
- EC50 (MCF-7 breast carcinoma [7]; [14]): < 100 nM
- EC50 (HUVEC): 100 to 1000 nM
- Relative Percent Remaining at 0 hr ([9]; 37° C., medium with 10% fetal bovine serum, 0 hr): 100%
- Relative Percent Remaining at 4 hr ([9]; 37° C., medium with 10% fetal bovine serum, 4 hr): 84%
- Relative Percent Remaining at 8 hr ([9]; 37° C., medium with 10% fetal bovine serum, 8 hr): 90%
- Relative Percent Remaining at 24 hr ([9]; 37° C., medium with 10% fetal bovine serum, 24 hr): 80%
- Relative Percent Remaining at 72 hr ([9]; 37° C., medium with 10% fetal bovine serum, 72 hr): 38%
- half-life ([9]; bovine, serum): 55 h
- Ave. MPA Act (tubulin): B (B=60-100)

SMILES: Nc1ncnc2c1ccn2[C@H]1C[C@H](O)[C@@H](CO)O1
- dCK [2]: 50
- dGK [1]: 100

SMILES: CC(=O)O[C@@]12CO[C@@H]1C[C@H](O)[C@@]1(C)C(=O)[C@H](OC(=O)NCCCCCCn3c(=O)c(C)cn([C@@H]4C[C@H](O)[C@@H](CO)O4)c3=O)C3=C(C)[C@@H](OC(=O)[C@H](O)[C@@H](NC(=O)c4ccccc4)c4ccccc4)C[C@@](O)([C@@H](OC(=O)c4ccccc4)[C@H]21)C3(C)C [PXL-10Ca-ALK(6)-N3-αTHY]
- Ave. TK1 Kinase Act. [8]: A (A<20)
- Ave. MPA Act (tubulin): B (B=60-100)
